Patent US20160317430A1, “COSMETIC USE OF AN EXTRACT OF GYMNEMA SYLVESTRE” (LABORATOIRES CLARINS, priority 2013, published 2016)

System: cytochrome C oxidase, complex IV of the respiratory chain
Experiment: Cytochrome C oxidase activity in human keratinocytes in culture, with or without H2O2 oxidative stress
Assay type: cell-based
Settings: H2O2 alone (positive control), 24 h
Protocol: The keratinocyte cultures were established using skin from human foreskins collected at circumcisions and were amplified in KGM2 medium (Keratinocyte Growth Medium, KGN2, clonetics) supplemented with insulin, EGF and pituitary extract. The tests were conducted on keratinocytes at the 3rd passage. The cells were inoculated in multi-well dishes at a rate of 1×10^6 cells. After 24 hours of incubation at 37° C. (5% CO2), the cells in the exponential growth phase were treated with Gymnema sylvestre extract at the concentrations of 0.125% and 0.25% alone or in the presence of H2O2.
After 24 hours of treatment, the cells were sampled and then washed and resuspended in cold PBS. The evaluation of the cytochrome C oxidase activity was then carried out using the analysis kit (Cytochrome C Oxidase Assay Kit—Sigma) according to the protocol specified.

## OO [H2O2, hydrogen peroxide]
  % (cytochrome C oxidase activity vs negative control): −34%
  ATP mean (Table II, cytochrome C oxidase activity test): 0.87 nmol/10^7 cells
